Test results as given in US7919671B2, “Method for testing a compound for a therapeutic effect and a diagnostic method” (Chempath Oy, priority 2004, dated 2011).

How the values were obtained:
human PAP = biological target: T1, human PAP (Homo sapiens, UniProt P15309); test: protein overlay assay of PAP binding to immobilized phospholipids (PIP Strips); details: 100 pmole lipid per spot on nitrocellulose strip; 10 μg/ml or 50 μg/ml human PAP, overnight at +4° C.
T1 sequence (P15309 33-386): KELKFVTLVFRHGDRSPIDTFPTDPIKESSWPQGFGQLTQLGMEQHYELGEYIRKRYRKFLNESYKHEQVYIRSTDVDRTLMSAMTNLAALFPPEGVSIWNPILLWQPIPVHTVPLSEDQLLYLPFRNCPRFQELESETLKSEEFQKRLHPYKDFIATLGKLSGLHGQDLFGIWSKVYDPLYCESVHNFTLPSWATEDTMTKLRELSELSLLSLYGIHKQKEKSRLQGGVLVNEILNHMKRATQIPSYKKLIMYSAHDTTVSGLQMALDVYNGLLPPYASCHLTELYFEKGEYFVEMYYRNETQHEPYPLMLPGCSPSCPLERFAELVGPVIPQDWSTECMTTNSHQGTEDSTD
Experimental: (D) The phospholipid binding properties of PAP. Nitrocellulose-immobilized phospholipids at 100 pmole per spot. The lipids, indicated by dashed circles, are: 1. lysophosphatidic acid, 2. lysophosphocholine, 3. PI; 4. PI(3)P; 5. PI(4)P; 6. PI(5)P; 7. phosphatidyletanolamine; 8. phosphatidylcholine; 9. spingosine-1-phosphate; 10. PI(3,4)P2; 11. PI(3,5)P2; 12. PI(4,5)P2; 13. PI(3,4,5)P3; 14. phosphatidic acid; 15. phosphatidylserine; 16. blank. The strip was incubated with human PAP at concentration 10 μg/ml.
The interaction between PAP and PI lipids was investigated using protein overlay assay.
The binding of human PAP to phospholipids was screened using PIP Strips™ (Echelon Bioscience). 100 pmole of lysophosphatidic acid, lysophosphocholine, PI, PI(3)P, PI(4)P, PI(5)P, phosphatidyletanolamine, phosphatidylcholine, sphingosine-1-phosphate, PI(3,4)P2, PI(3,5)P2, PI(4,5)P2, PI(3,4,5)P3, phosphatidic acid, and phosphatidylserine was immobilized on a nitrocellulose strip. The strip was incubated with 10 μg/ml or 50 μg/ml human PAP in 4% non-fat dry milk (Valio) in TBS-T overnight at +4° C. The bound PAP was detected using polyclonal PAP antibody produced by us (Vihko et al., 1978, Clin. Chem. 24, 1915-1919), alkalinephosphatase conjugated secondary antibody (Sigma), and the NBT/BCIP color reaction assay (Promega).

[1] = biological target: T2, PAP purified from human spermatic fluid (Homo sapiens, UniProt P15309); test: malachite green assay of the PI(3)P phosphatase activity of PAP; format: biochemical; details: 50 mM MES buffer, pH 6.5, 37° C.
T2 construct: purified from human spermatic fluid as previously described; from tissue; host or cells: human spermatic (seminal) fluid
T2 sequence (P15309 33-386): T1 sequence (P15309 33-386)
Experimental: (E) PI(3)P phosphatase activity of PAP. Phosphatase assays containing 0.01 μg/μl PAP with varying amounts of PI(3)P or buffer were incubated for 5 min at 37° C. and free phosphate was measured by malachite green assay. Initial velocities were calculated from these time courses and plotted against the respective substrate concentration.
To confirm that PAP hydrolyses PI(3)P the lipid phosphatase activity of PAP towards PI(3)P was studied. […] Being sigmoidal, the kinetic curve was inconsistent with Michaelis-Menten kinetics.
A malachite green assay (BIOMOL GREEN™, BIOMOL Research Laboratories, Inc.) adapted to a 96-well format was used to measure the released free-phosphate from PI(3)P (Echelon Bioscience Inc.). Briefly, the reaction (total volume of 25 μl) containing 50 mM MES buffer, pH 6.5 and an indicated amount of PI(3)P, was initiated by adding the PAP (0.25 μg per reaction) purified from human spermatic fluid as previously described (specific activity of the enzyme 397 μmol min^−1 mg^−1) (Vihko et al. 1978, Clin. Chem. 24, 1915-1919). After incubation at 37° C. for 2 and 5 min the reaction was terminated by adding 100 μl of BIOMOL GREEN reagent. The green color was allowed to develop for 20 min at room temperature and absorbance was measured at 650 nm. The phosphate released was quantified by comparing to inorganic phosphate standards. […]

binding of PAP to the lipid (human PAP) | lipid phosphatase activity of PAP towards the lipid (use as a substrate) ([1]; 0.25 μg PAP per reaction, 2 and 5 min) | shape of the kinetic curve (initial velocity against substrate concentration) ([1]; inconsistent with Michaelis-Menten kinetics) | Molecule
no affinity |  |  | CCCCCCCCCCCCC/C=C/[C@@H](O)[C@@H](N)COP(=O)(O)O [sphingosine-1-phosphate]
no affinity |  |  | PI(3,4)P2
no affinity |  |  | PI(3,4,5)P3
no affinity |  |  | PI(3,5)P2
no affinity |  |  | PI(4,5)P2
no affinity |  |  | lysophosphatidic acid
no affinity |  |  | phosphatidic acid
no affinity |  |  | phosphatidylethanolamine
no affinity |  |  | phosphatidylserine

Further lines, the molecule ahead of its results:

Molecule | binding of PAP to the lipid (human PAP) | lipid phosphatase activity of PAP towards the lipid (use as a substrate) ([1]; 0.25 μg PAP per reaction, 2 and 5 min) | shape of the kinetic curve (initial velocity against substrate concentration) ([1]; inconsistent with Michaelis-Menten kinetics)
CCCCCCCCCCCCCCCC(=O)OC[C@H](COP(=O)(O)O[C@@H]1[C@H](O)[C@H](OP(=O)(O)O)[C@@H](O)[C@H](O)[C@H]1O)OC(=O)CCCCCCCCCCCCCCC [PI(3)P, phosphatidylinositol 3-phosphate] | binds strongly | utilizes PI(3)P as a substrate | sigmoidal
PI(5)P | no affinity |  | 
Phosphatidylinositol [PI] | no affinity |  | 
lysophosphocholine | no affinity |  | 
phosphatidylcholine | no affinity |  | 
phosphatidylinositol 4-phosphate [PI(4)P] | no affinity |  | 
